pIC50: −log10 of the molar value. Values belong to the molecule of their own block, whether it stands above or below them.
System: NCI-H510 multicellular tumor spheroid growth, % test/control
Assay: Anticancer human tumor NCI-H510 cell line growth inhibition [Asc];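 also: spheroids exposed to agents for 7 days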;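 as to viability, T/C: 100% = DMSO vehicle control wells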
Details: for pIC50: curve of first compound; for viability, T/C: stronger effect = lower value
Summary of the method: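 Complex solid-tumor spheroids incorporating human endothelial and mesenchymal stem cells received single agents or combinations over half-log dilution ranges anchored to clinical Cmax.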

[1] = second compound 0.1 µM, first compound 0.00949 µM
[2] = second compound 0.1 µM, first compound 0.03 µM
[3] = second compound 0.1 µM, first compound 0.0949 µM
[4] = second compound 0.1 µM, first compound 0.3 µM
[5] = second compound 0.1 µM, first compound 0.949 µM
[6] = second compound 0.1 µM, first compound 3 µM
[7] = second compound 0.316 µM, first compound 0.00949 µM
[8] = second compound 0.316 µM, first compound 0.03 µM
[9] = second compound 0.316 µM, first compound 0.0949 µM
[10] = second compound 0.316 µM, first compound 0.3 µM
[11] = second compound 0.316 µM, first compound 0.949 µM
[12] = second compound 0.316 µM, first compound 3 µM
[13] = second compound 1 µM, first compound 0.00949 µM
[14] = second compound 1 µM, first compound 0.03 µM
[15] = second compound 1 µM, first compound 0.0949 µM
[16] = second compound 1 µM, first compound 0.3 µM
[17] = second compound 1 µM, first compound 0.949 µM
[18] = second compound 1 µM, first compound 3 µM

- pIC50 (second compound 0.1 µM): < 5.52
- pIC50 (second compound 0.316 µM): < 5.52
- pIC50 (second compound 1 µM): < 5.52
- pIC50 (second compound 3.16 µM): < 5.52
- pIC50 (second compound 10 µM): < 5.52
SMILES: CCN1C(C(=O)NC23CCC(C(=O)O)(CC2)CC3)C(c2cccc(Cl)c2F)C2(C(=O)Nc3cc(Cl)ccc32)C12CCCCC2 (configuration not stated) + Cc1c(S(C)(=O)=O)c(-c2cc(F)cc(N3CCN(c4ccc(NS(=O)(=O)c5ccc(NC(CCN6CCC(C(=O)OCCCP(=O)(O)O)CC6)CSc6ccccc6)c(S(=O)(=O)C(F)(F)F)c5)cc4)CC3)c2)c(-c2ccc(Cl)cc2)n1C(C)C
- viability, T/C [1]: 101%
- viability, T/C [2]: 97.6%
- viability, T/C [3]: 95.5%
- viability, T/C [4]: 96.3%
- viability, T/C [5]: 80.3%
- viability, T/C [6]: 104%
- viability, T/C [7]: 86.3%
- viability, T/C [8]: 105%
- viability, T/C [9]: 94.8%
- viability, T/C [10]: 94.9%
- viability, T/C [11]: 88.9%
- viability, T/C [12]: 83.6%
- viability, T/C [13]: 103%
- viability, T/C [14]: 82%
- viability, T/C [15]: 104%
- viability, T/C [16]: 99.5%
- viability, T/C [17]: 103%
- viability, T/C [18]: 95%
- viability, T/C (second compound 3.16 µM, first compound 0.00949 µM): 88.7%
- viability, T/C (second compound 3.16 µM, first compound 0.03 µM): 103%
- viability, T/C (second compound 3.16 µM, first compound 0.0949 µM): 96.4%
- viability, T/C (second compound 3.16 µM, first compound 0.3 µM): 114%
- viability, T/C (second compound 3.16 µM, first compound 0.949 µM): 68%
- viability, T/C (second compound 3.16 µM, first compound 3 µM): 85.1%
- viability, T/C (second compound 10 µM, first compound 0.00949 µM): 109%
- viability, T/C (second compound 10 µM, first compound 0.03 µM): 84%
- viability, T/C (second compound 10 µM, first compound 0.0949 µM): 87.3%
- viability, T/C (second compound 10 µM, first compound 0.3 µM): 59.1%
- viability, T/C (second compound 10 µM, first compound 0.949 µM): 72.8%
- viability, T/C (second compound 10 µM, first compound 3 µM): 56.3%

- pIC50 (second compound 0.03 µM): 5.93
- pIC50 (second compound 0.0949 µM): 5.96
- pIC50 (second compound 0.3 µM): 5.89
- pIC50 (second compound 0.949 µM): 6.14
- pIC50 (second compound 3 µM): 5.93
SMILES: C=C(F)C(=O)N1CCN(c2nc(OCC3CCCN3C)nc3c2CCN(c2cccc4cccc(Cl)c24)C3)CC1CC#N (configuration not stated) + CCN1C(C(=O)NC23CCC(C(=O)O)(CC2)CC3)C(c2cccc(Cl)c2F)C2(C(=O)Nc3cc(Cl)ccc32)C12CCCCC2
- viability, T/C (second compound 0.03 µM, first compound 0.0316 µM): 93.8%
- viability, T/C (second compound 0.03 µM, first compound 0.1 µM): 103%
- viability, T/C (second compound 0.03 µM, first compound 0.316 µM): 88.3%
- viability, T/C (second compound 0.03 µM, first compound 1 µM): 58.2%
- viability, T/C (second compound 0.03 µM, first compound 3.16 µM): 1.61%
- viability, T/C (second compound 0.03 µM, first compound 10 µM): 0.12%
- viability, T/C (second compound 0.0949 µM, first compound 0.0316 µM): 78.5%
- viability, T/C (second compound 0.0949 µM, first compound 0.1 µM): 89%
- viability, T/C (second compound 0.0949 µM, first compound 0.316 µM): 100%
- viability, T/C (second compound 0.0949 µM, first compound 1 µM): 54.6%
- viability, T/C (second compound 0.0949 µM, first compound 3.16 µM): 3.81%
- viability, T/C (second compound 0.0949 µM, first compound 10 µM): 0.11%
- viability, T/C (second compound 0.3 µM, first compound 0.0316 µM): 106%
- viability, T/C (second compound 0.3 µM, first compound 0.1 µM): 88%
- viability, T/C (second compound 0.3 µM, first compound 0.316 µM): 109%
- viability, T/C (second compound 0.3 µM, first compound 1 µM): 62.5%
- viability, T/C (second compound 0.3 µM, first compound 3.16 µM): 7.29%
- viability, T/C (second compound 0.3 µM, first compound 10 µM): 0.11%
- viability, T/C (second compound 0.949 µM, first compound 0.0316 µM): 95.3%
- viability, T/C (second compound 0.949 µM, first compound 0.1 µM): 91.4%
- viability, T/C (second compound 0.949 µM, first compound 0.316 µM): 88.5%
- viability, T/C (second compound 0.949 µM, first compound 1 µM): 34.3%
- viability, T/C (second compound 0.949 µM, first compound 3.16 µM): 4.93%
- viability, T/C (second compound 0.949 µM, first compound 10 µM): 0.1%
- viability, T/C (second compound 3 µM, first compound 0.0316 µM): 87.5%
- viability, T/C (second compound 3 µM, first compound 0.1 µM): 121%
- viability, T/C (second compound 3 µM, first compound 0.316 µM): 95%
- viability, T/C (second compound 3 µM, first compound 1 µM): 52.5%
- viability, T/C (second compound 3 µM, first compound 3.16 µM): 20.7%
- viability, T/C (second compound 3 µM, first compound 10 µM): 0.18%

- pIC50 (second compound 0.00316 µM): < 5.52
- pIC50 (second compound 0.01 µM): < 5.52
- pIC50 (second compound 0.0316 µM): < 5.52
- pIC50 (second compound 0.1 µM): < 5.52
- pIC50 (second compound 0.316 µM): < 5.52
- pIC50 (second compound 1 µM): < 5.52
SMILES: Cc1nc(N2CCC3(CC2)COC(C)C3N)c(CO)nc1Sc1ccnc(N)c1Cl (configuration not stated) + CNC(C)C(=O)NC1CN(S(=O)(=O)c2cccc(S(=O)(=O)N3CCC4CCC(C(=O)NC(c5ccccc5)c5ccccc5)N4C(=O)C(NC(=O)C(C)NC)C3)c2)CCC2CCC(C(=O)NC(c3ccccc3)c3ccccc3)N2C1=O
- viability, T/C (second compound 0.00316 µM, first compound 0.00949 µM): 103%
- viability, T/C (second compound 0.00316 µM, first compound 0.03 µM): 95.3%
- viability, T/C (second compound 0.00316 µM, first compound 0.0949 µM): 104%
- viability, T/C (second compound 0.00316 µM, first compound 0.3 µM): 89%
- viability, T/C (second compound 0.00316 µM, first compound 0.949 µM): 98.5%
- viability, T/C (second compound 0.00316 µM, first compound 3 µM): 106%
- viability, T/C (second compound 0.01 µM, first compound 0.00949 µM): 102%
- viability, T/C (second compound 0.01 µM, first compound 0.03 µM): 108%
- viability, T/C (second compound 0.01 µM, first compound 0.0949 µM): 99.9%
- viability, T/C (second compound 0.01 µM, first compound 0.3 µM): 105%
- viability, T/C (second compound 0.01 µM, first compound 0.949 µM): 93.9%
- viability, T/C (second compound 0.01 µM, first compound 3 µM): 102%
- viability, T/C (second compound 0.0316 µM, first compound 0.00949 µM): 97.9%
- viability, T/C (second compound 0.0316 µM, first compound 0.03 µM): 88.3%
- viability, T/C (second compound 0.0316 µM, first compound 0.0949 µM): 95.9%
- viability, T/C (second compound 0.0316 µM, first compound 0.3 µM): 99.8%
- viability, T/C (second compound 0.0316 µM, first compound 0.949 µM): 94.7%
- viability, T/C (second compound 0.0316 µM, first compound 3 µM): 111%
- viability, T/C [1]: 99.3%
- viability, T/C [2]: 99.2%
- viability, T/C [3]: 109%
- viability, T/C [4]: 88.1%
- viability, T/C [5]: 99.5%
- viability, T/C [6]: 106%
- viability, T/C [7]: 91.8%
- viability, T/C [8]: 117%
- viability, T/C [9]: 94.9%
- viability, T/C [10]: 98.5%
- viability, T/C [11]: 94.7%
- viability, T/C [12]: 95%
- viability, T/C [13]: 106%
- viability, T/C [14]: 91.1%
- viability, T/C [15]: 104%
- viability, T/C [16]: 94.3%
- viability, T/C [17]: 90.6%
- viability, T/C [18]: 100%
